# Measurements: patent US9113629B2, “4-amino-6-(4-substituted-phenyl)-picolinates and 6-amino-2-(4-substituted-phenyl)-pyrimidine-4-carboxylates and their use as herbicides” (DOW AGROSCIENCES LLC, priority 2013, dated 2015)
# Like-named read-outs stand apart in the source and are kept apart here.
# Tests used:
# [1] = system: Key Broadleaf Weed and Crop Species; assay: Post-emergent Test II herbicidal activity (Table 5); format: in vivo; settings: post-emergence, 336 h, 14 days after application; for pest or weed control at 70 g/ha: application rate 70 g ai/ha; for pest or weed control at 140 g/ha: application rate 140 g ai/ha
# Procedure, shortened: (§1)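 Plants grown in Metro-Mix 360 (pH 6.0–6.8) in a greenhouse (~15 h photoperiod, 23–29 °C day) to first or second true leaf stage, then sprayed with compound in acetone/DMSO/aqueous crop-oil-surfactant carrier at 187 L/ha by track sprayer. Injury visually scored 0–100% versus untreated plants after 14 d.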
# [2] = system: Key Grass and Sedge Weeds as well as Grass Crops; assay: Post-emergent Test II herbicidal activity (Table 6); format: in vivo; settings: post-emergence, 336 h; for pest or weed control at 70 g/ha: 70 g ai/ha; for pest or weed control at 140 g/ha: 140 g ai/ha
# Procedure, shortened: as §1
# [3] = ABUTH: velvetleaf (Abutilon theophrasti), read-out: Visual Growth Reduction (%) 14 Days After Application, ABUTH
# [4] = AMARE: redroot pigweed (Amaranthus retroflexus), read-out: Visual Growth Reduction (%) 14 Days After Application, AMARE
# [5] = BRSNN: oilseed-rape, canola (Brassica napus), read-out: Visual Growth Reduction (%) 14 Days After Application, BRSNN
# [6] = CHEAL: lambsquarters (Chenopodium album), read-out: Visual Growth Reduction (%) 14 Days After Application, CHEAL
# [7] = EPHHL: wild poinsettia (Euphorbia heterophylla), read-out: Visual Growth Reduction (%) 14 Days After Application, EPHHL
# [8] = HELAN: sunflower (Helianthus annuus), read-out: Visual Growth Reduction (%) 14 Days After Application, HELAN
# [9] = VIOTR: wild pansy (Viola tricolor), read-out: Visual Growth Reduction (%) 14 Days After Application, VIOTR
# [10] = CYPES: yellow nutsedge (Cyperus esculentus), read-out: Visual Growth Reduction (%) 14 Days After Application, CYPES
# [11] = DIGSA: crabgrass (Digitaria sanguinalis), read-out: Visual Growth Reduction (%) 14 Days After Application, DIGSA
# [12] = ECHCG: barnyardgrass (Echinochloa crus-galli), read-out: Visual Growth Reduction (%) 14 Days After Application, ECHCG
# [13] = ORYSA: rice (Oryza sativa), crop, read-out: Visual Growth Reduction (%) 14 Days After Application, ORYSA
# [14] = SETFA: giant foxtail (Setaria faberi), read-out: Visual Growth Reduction (%) 14 Days After Application, SETFA
# [15] = SORVU: grain sorghum (Sorghum vulgare), read-out: Visual Growth Reduction (%) 14 Days After Application, SORVU
# [16] = TRZSS (wheat, Triticum aestivum), crop, read-out: Visual Growth Reduction (%) 14 Days After Application, TRZSS
# [17] = ZEAMX: maize, corn (Zea mays), crop, read-out: Visual Growth Reduction (%) 14 Days After Application, ZEAMX
compound,measurement,setting,value
Nc1c(F)c(-c2ccc(Cl)c(F)c2)nc(C(=O)O)c1Cl [Compound 217],pest or weed control at 70 g/ha,[1]; [3],95 to 100%
same,pest or weed control at 140 g/ha,[1]; [3],95 to 100%
same,pest or weed control at 70 g/ha,[1]; [4],95 to 100%
same,pest or weed control at 140 g/ha,[1]; [4],95 to 100%
same,pest or weed control at 70 g/ha,[1]; [5],85 to 94%
same,pest or weed control at 140 g/ha,[1]; [5],95 to 100%
same,pest or weed control at 70 g/ha,[1]; [6],95 to 100%
same,pest or weed control at 140 g/ha,[1]; [6],95 to 100%
same,pest or weed control at 70 g/ha,[1]; [7],95 to 100%
same,pest or weed control at 140 g/ha,[1]; [7],95 to 100%
same,pest or weed control at 70 g/ha,[1]; [8],95 to 100%
same,pest or weed control at 140 g/ha,[1]; [8],95 to 100%
same,pest or weed control at 70 g/ha,[1]; [9],95 to 100%
same,pest or weed control at 140 g/ha,[1]; [9],95 to 100%
same,pest or weed control at 70 g/ha,[2]; [10],85 to 94%
same,pest or weed control at 140 g/ha,[2]; [10],85 to 94%
same,pest or weed control at 70 g/ha,[2]; [11],85 to 94%
same,pest or weed control at 140 g/ha,[2]; [11],85 to 94%
same,pest or weed control at 70 g/ha,[2]; [12],95 to 100%
same,pest or weed control at 140 g/ha,[2]; [12],95 to 100%
same,pest or weed control at 70 g/ha,[2]; [13],60 to 74%
same,pest or weed control at 140 g/ha,[2]; [13],75 to 84%
same,pest or weed control at 70 g/ha,[2]; [14],95 to 100%
same,pest or weed control at 140 g/ha,[2]; [14],95 to 100%
same,pest or weed control at 70 g/ha,[2]; [15],85 to 94%
same,pest or weed control at 140 g/ha,[2]; [15],85 to 94%
same,pest or weed control at 70 g/ha,[2]; [16],75 to 84%
same,pest or weed control at 140 g/ha,[2]; [16],75 to 84%
same,pest or weed control at 70 g/ha,[2]; [17],85 to 94%
same,pest or weed control at 140 g/ha,[2]; [17],95 to 100%
same,melting point,,159 to 161 °C
